The values that follow come from US6017935A, “7-sulfur substituted paclitaxels” (Bristol-Myers Squibb Company, priority 1998, dated 2000).

One experiment concerns HCT-116 human colon carcinoma cells. The experiment in a line: Cytotoxicity (in vitro) MTS assay in HCT-116 human colon carcinoma cells. It counts as cell-based. As to conditions: Homo sapiens, HCT-116, 72 h, read-out: IC50 HCT 116, HCT-116 cells, MTS assay, 72 hours at 37° C.; drug concentration required to inhibit cell proliferation to 50% of untreated control. As for the experimental part: Cytoxicity was assessed in HCT-116 human colon carcinoma cells by MTS (3-(4,5-dimethylthiazol-2-yl)-5-(3-carboxymethoxyphenyl)-2-(4-sulphenyl)-2H-tetrazolium, inner salt) assay as reported in T. L. Riss, et al., "Comparison of MTT, XTT, and a novel tetrazolium compound MTS for in vitro proliferation and chemosensitivity assays.", Mol. Biol. Cell 3 (Suppl.):184a, 1992. Cells were plated at 4,000 cell/well in 96 well microtiter plates and 24 hours later drugs were added and serial diluted. The cells were incubated at 37° C. for 72 hours at which time the tetrazolium dye, MTS at 333 μg/ml (final concentration), in combination with the electron coupling agent phenazine methosulfate at 25 μM (final concentration) was added. A dehydrogenase enzyme in live cell reduces the MTS to a form that absorbs light at […] which can be quantitated spectrophotometrically. The greater the absorbance the greater the number of live cells. The results are expressed as an IC50, which is the drug concentration required to inhibit cell proliferation (i.e. absorbance at 450 nm) to 50% of that of untreated control cells.
On the technique in general: Tetrazolium assays rely on reduction of a dye to a coloured formazan, in cell work by metabolically active cells.
Regarding `CC(=O)O[C@H]1C(=O)[C@@]2(C)[C@H]([C@H](OC(=O)c3ccccc3)[C@]3(O)C[C@H](OC(=O)[C@H](O)[C@@H](NC(=O)c4ccccc4)c4ccccc4)C(C)=C1C3(C)C)[C@]1(OC(C)=O)CO[C@@H]1C[C@@H]2O` [paclitaxel], the half-inhibitory concentration (IC50) (usually the point on the concentration scale where inhibition reaches its midpoint) fell in the range of 1.71 to 2.28 nM.

For `CS[C@H]1C[C@H]2OC[C@@]2(OC(C)=O)[C@H]2[C@H](OC(=O)c3ccccc3)[C@]3(O)C[C@H](OC(=O)[C@H](O)[C@@H](NC(=O)c4ccccc4)c4ccccc4)C(C)=C([C@@H](OC(C)=O)C(=O)[C@]12C)C3(C)C` [Compound 18a, 7-deoxy-7β-thiomethylpaclitaxel], the half-maximal inhibitory concentration (IC50) is 0.2 nM.

Regarding `COC(=O)/C=C/S[C@H]1C[C@H]2OC[C@@]2(OC(C)=O)[C@H]2[C@H](OC(=O)c3ccccc3)[C@]3(O)C[C@H](OC(=O)[C@H](O)[C@@H](NC(=O)c4ccccc4)c4ccccc4)C(C)=C([C@@H](OC(C)=O)C(=O)[C@]12C)C3(C)C` [Compound 34a, 7-deoxy-7β-thio-(3-methylacrylate)paclitaxel], the IC50 was determined as 6.97 nM.

With `CC(=O)O[C@H]1C(=O)[C@]2(C)[C@@H](SCC#N)C[C@H]3OC[C@@]3(OC(C)=O)[C@H]2[C@H](OC(=O)c2ccccc2)[C@]2(O)C[C@H](OC(=O)[C@H](O)[C@@H](NC(=O)c3ccccc3)c3ccccc3)C(C)=C1C2(C)C` [Compound 25a], the IC50 was under 0.04 nM.

As for `COC(=O)/C=C\S[C@H]1C[C@H]2OC[C@@]2(OC(C)=O)[C@H]2[C@H](OC(=O)c3ccccc3)[C@]3(O)C[C@H](OC(=O)[C@H](O)[C@@H](NC(=O)c4ccccc4)c4ccccc4)C(C)=C([C@@H](OC(C)=O)C(=O)[C@]12C)C3(C)C` [Compound 35a, 7-deoxy-7β-thio-(3-methylacrylate)paclitaxel], the IC50 is 1.76 nM.

Take `CC(=O)O[C@H]1C(=O)[C@]2(C)[C@@H](SC[S+](C)[O-])C[C@H]3OC[C@@]3(OC(C)=O)[C@H]2[C@H](OC(=O)c2ccccc2)[C@]2(O)C[C@H](OC(=O)[C@H](O)[C@@H](NC(=O)c3ccccc3)c3ccccc3)C(C)=C1C2(C)C` (stereo partly drawn) [31a&b, 7-deoxy-7β-methylsulfinylmethylthiopaclitaxel]: the IC50 came to 6.48 nM.

For `CC(=O)O[C@H]1C(=O)[C@]2(C)[C@@H](SC#N)C[C@H]3OC[C@@]3(OC(C)=O)[C@H]2[C@H](OC(=O)c2ccccc2)[C@]2(O)C[C@H](OC(=O)[C@H](O)[C@@H](NC(=O)c3ccccc3)c3ccccc3)C(C)=C1C2(C)C` [Compound 28a, 7-deoxy-7β-thiocyanatopaclitaxel], the IC50 came to 1.8 nM.

As for `CC(=O)O[C@H]1C(=O)[C@]2(C)[C@@H](SCc3ccccn3)C[C@H]3OC[C@@]3(OC(C)=O)[C@H]2[C@H](OC(=O)c2ccccc2)[C@]2(O)C[C@H](OC(=O)[C@H](O)[C@@H](NC(=O)c3ccccc3)c3ccccc3)C(C)=C1C2(C)C` [Compound 30a, 7-deoxy-7β-(thio-2-picolyl)-paclitaxel], the IC50 was found to be 1.12 nM.

`CS[C@H]1C[C@H]2OC[C@@]2(OC(C)=O)[C@H]2[C@H](OC(=O)c3ccccc3)[C@]3(O)C[C@H](OC(=O)[C@H](O)[C@@H](NC(=O)OC(C)(C)C)c4ccccc4)C(C)=C([C@@H](OC(C)=O)C(=O)[C@]12C)C3(C)C` [Compound 22a, 3'-NH-Boc-7-deoxy-7β-thiomethylpaclitaxel]: the half-inhibitory concentration (IC50) came to 0.3 nM.

Take `CC(=O)O[C@H]1C(=O)[C@@]2(C)[C@H]([C@H](OC(=O)c3ccccc3)[C@]3(O)C[C@H](OC(=O)[C@H](O)[C@@H](NC(=O)c4ccccc4)c4ccccc4)C(C)=C1C3(C)C)[C@]1(OC(C)=O)CO[C@@H]1C[C@@H]2S` [Compound 14a, 7-deoxy-7β-thiopaclitaxel]: the IC50 came out at 13.5 nM.

For the molecule `CS[C@@H]1C[C@H]2OC[C@@]2(OC(C)=O)[C@H]2[C@H](OC(=O)c3ccccc3)[C@]3(O)C[C@H](OC(=O)[C@H](O)[C@@H](NC(=O)c4ccccc4)c4ccccc4)C(C)=C([C@@H](OC(C)=O)C(=O)[C@@]21C)C3(C)C` [Compound 5a, 7-deoxy-7α-thiomethylpaclitaxel], the IC50 turned out to be 13.1 nM.

Take `CCS[C@H]1C[C@H]2OC[C@@]2(OC(C)=O)[C@H]2[C@H](OC(=O)c3ccccc3)[C@]3(O)C[C@H](OC(=O)[C@H](O)[C@@H](NC(=O)c4ccccc4)c4ccccc4)C(C)=C([C@@H](OC(C)=O)C(=O)[C@]12C)C3(C)C` [Compound 24a, 7-deoxy-7β-thioethylpaclitaxel]: the IC50 was 4.02 nM.

Turning to `COCS[C@H]1C[C@H]2OC[C@@]2(OC(C)=O)[C@H]2[C@H](OC(=O)c3ccccc3)[C@]3(O)C[C@H](OC(=O)[C@H](O)[C@@H](NC(=O)c4ccccc4)c4ccccc4)C(C)=C([C@@H](OC(C)=O)C(=O)[C@]12C)C3(C)C` [Compound 16a, 7-deoxy-7β-thiomethoxymethyl paclitaxel], the IC50 turned out to be 0.5 nM.

`C=CS[C@H]1C[C@H]2OC[C@@]2(OC(C)=O)[C@H]2[C@H](OC(=O)c3ccccc3)[C@]3(O)C[C@H](OC(=O)[C@H](O)[C@@H](NC(=O)c4ccccc4)c4ccccc4)C(C)=C([C@@H](OC(C)=O)C(=O)[C@]12C)C3(C)C` [Compound 27a, 7-deoxy-7β-thiovinylpaclitaxel]: the IC50 worked out at 1.2 nM.

As to `CC(=O)O[C@H]1C(=O)[C@]2(C)[C@@H](SCCO)C[C@H]3OC[C@@]3(OC(C)=O)[C@H]2[C@H](OC(=O)c2ccccc2)[C@]2(O)C[C@H](OC(=O)[C@H](O)[C@@H](NC(=O)c3ccccc3)c3ccccc3)C(C)=C1C2(C)C` [Compound 20a, 7-deoxy-7β-(2-hydroxethylthio)paclitaxel], the IC50 worked out at 0.82 nM.

The experiment is the same for the next values; noted with them: Homo sapiens; HCT-116 cells, MTS assay, 72 hours at 37° C.; drug concentration required to inhibit cell proliferation to 50% of untreated control; read-out: IC50 HCT 116.
For the molecule `CC(=O)O[C@H]1C(=O)[C@@]2(C)[C@H]([C@H](OC(=O)c3ccccc3)[C@]3(O)C[C@H](OC(=O)[C@H](O)[C@@H](NC(=O)c4ccccc4)c4ccccc4)C(C)=C1C3(C)C)[C@]1(OC(C)=O)CO[C@@H]1C[C@H]2S(C)(=O)=O` [Compound 7a, 7-deoxy-7α-methylsulfonylpaclitaxel], the IC50 was found to be 72.3 nM.

Take `CC(=O)O[C@@H]1C2=C(C)[C@@H](OC(=O)[C@H](O)[C@@H](NC(=O)c3ccccc3)c3ccccc3)C[C@@](O)([C@@H](OC(=O)c3ccccc3)[C@@H]3[C@]4(OC(C)=O)CO[C@@H]4C[C@@H]4[C@@]3(C)C1(O)CS4(=O)=O)C2(C)C` (stereo partly drawn) [Compound 9a]: the IC50 was 2.99 nM.

Staying with this experiment, now noted: read-out: IC50 HCT 116; HCT-116 cells, MTS assay, 72 hours at 37° C.; drug concentration required to inhibit cell proliferation to 50% of untreated control.
As for `CC(=O)O[C@H]1C(=O)[C@]2(C)[C@@H]([S+](C)[O-])C[C@H]3OC[C@@]3(OC(C)=O)[C@H]2[C@H](OC(=O)c2ccccc2)[C@]2(O)C[C@H](OC(=O)[C@H](O)[C@@H](NC(=O)c3ccccc3)c3ccccc3)C(C)=C1C2(C)C` (single isomer, unassigned) [Compound 29a, 7-deoxy-7β-methylsulfinyl-paclitaxel], the IC50 stood at 3.99 nM.

`CC(=O)O[C@H]1C(=O)[C@]2(C)[C@@H]([S+](C)[O-])C[C@H]3OC[C@@]3(OC(C)=O)[C@H]2[C@H](OC(=O)c2ccccc2)[C@]2(O)C[C@H](OC(=O)[C@H](O)[C@@H](NC(=O)c3ccccc3)c3ccccc3)C(C)=C1C2(C)C` (single isomer, unassigned) [Compound 29b, 7-deoxy-7β-methylsulfinyl-paclitaxel]: the IC50 came to 12.1 nM.

Tested on in the next experiment: not given
Assay: not given
As to conditions: background statement; cited from earlier work.
In the case of `CC(=O)O[C@H]1C(=O)[C@@]2(C)[C@H]([C@H](OC(=O)c3ccccc3)[C@]3(O)C[C@H](OC(=O)[C@H](O)[C@@H](NC(=O)c4ccccc4)c4ccccc4)C(C)=C1C3(C)C)[C@]1(OC(C)=O)CO[C@@H]1C[C@@H]2O` [paclitaxel], the “antitumor activity in in vivo animal models” value is given as “excellent antitumor activity”.

Tested on in a further experiment: not given
Assay: not given
The conditions noted are these: background statement; cited from earlier work. The source holds these as a separate data set.
Consider `CC(=O)O[C@@]12CO[C@@H]1C[C@H](O)[C@@]1(C)C(=O)[C@H](O)C3=C(C)[C@@H](OC(=O)[C@H](O)[C@@H](NC(=O)OC(C)(C)C)c4ccccc4)C[C@@](O)([C@@H](OC(=O)c4ccccc4)[C@H]21)C3(C)C` [docetaxel], for which the antitumor activity result is recorded as “good antitumor activity”.
